Experimental data as given in US8735406B2, “8-oxodihydropurine derivative” (Dainippon Sumitomo Pharma Co., Ltd., priority 2009, dated 2014).
Where two headings read alike, the source gives them in different places.

Biological target: T1, FAAH (Rattus norvegicus, UniProt P97612)
T1 construct: Preparation of Rat Brain Membranes Preparations (FAAH Enzyme Solution); from tissue; host or cells: rat cerebrum (brain membrane preparation)
T1 sequence (P97612 1-579): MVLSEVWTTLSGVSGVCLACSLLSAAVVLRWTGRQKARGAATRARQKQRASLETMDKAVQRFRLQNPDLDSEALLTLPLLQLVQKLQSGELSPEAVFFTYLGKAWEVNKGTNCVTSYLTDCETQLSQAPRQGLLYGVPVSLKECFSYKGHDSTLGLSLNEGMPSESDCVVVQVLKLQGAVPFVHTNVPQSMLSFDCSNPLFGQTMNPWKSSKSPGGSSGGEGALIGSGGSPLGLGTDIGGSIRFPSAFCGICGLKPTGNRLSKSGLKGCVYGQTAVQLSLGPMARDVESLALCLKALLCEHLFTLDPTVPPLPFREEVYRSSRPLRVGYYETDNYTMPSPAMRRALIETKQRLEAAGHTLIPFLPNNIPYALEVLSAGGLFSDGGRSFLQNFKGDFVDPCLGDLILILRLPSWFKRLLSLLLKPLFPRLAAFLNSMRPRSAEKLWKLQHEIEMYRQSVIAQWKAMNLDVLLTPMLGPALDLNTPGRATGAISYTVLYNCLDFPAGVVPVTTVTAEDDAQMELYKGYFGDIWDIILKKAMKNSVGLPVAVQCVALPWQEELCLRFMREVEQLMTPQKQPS
Experiment: Determination of FAAH inhibitory activity in rat (rat brain membrane preparations, [3H]-anandamide hydrolysis)
Type: biochemical
Settings: rat brain membrane preparations; for IC50: read-out: FAAH Inhibition IC50
Procedure, shortened: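 Compounds tested from 0.1 nM to 1 μM to derive IC50 against FAAH hydrolysis in rat brain membrane preparations (100 μg/mL). A 10-min 37 °C preincubation was followed by 10 min with [3H]-anandamide (2 nM) mixed with 2 μM unlabelled anandamide. Radioactive ethanolamine was extracted into the water/methanol layer and counted.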

[1] = at 100 nM, read-out: FAAH Inhibition Inhibition Rate at 100 nM
[2] = 100 nM test substance, read-out: FAAH Inhibition, Inhibition Rate at 100 nM

SMILES	inhibition at 0.1 µM [1] [%]	IC50 [nM]	inhibition at 0.1 µM [2] [%]	IC50 (test substance 0.1 nM to 1 μM) [nM]
CN(C)C(=O)n1c(=O)n(C)c2cnc(CCCC3CCCC3)nc21 [Example 617]	93	6		
COc1cccc(-c2ncc3c(n2)n(C)c(=O)n3C(=O)N2CCN(c3ccc(F)cc3)CC2)c1 [Example 136, 7-{[4-(4-Fluorophenyl)piperazin-1-yl]carbonyl}-2-(3-methoxyphenyl)-9-methyl-7,9-dihydro-8H-purine-8-one]			99	3
COc1cccc(-c2ncc3c(n2)n(C)c(=O)n3C(=O)N(C)Cc2ccc(F)cc2)c1 [Example 71, N-(4-Fluorobenzyl)-2-(3-methoxyphenyl)-N,9-dimethyl-8-oxo-8,9-dihydro-7H-purine-7-carboxamide]			103	9
CN(C)C(=O)n1c(=O)n(C)c2cnc(Cc3ccc(Cl)cc3)nc21 [compound 653]	108	11		
COCc1ncc2c(n1)n(C)c(=O)n2C(=O)N1CC[C@H](Oc2ccccc2F)C1 [Example 483, 7-{[(3S)-3-(2-Fluorophenoxy)pyrrolidin-1-yl]carbonyl}-2-(methoxymethyl)-9-methyl-7,9-dihydro-8H-purine-8-one]			110	10
CCOC(=O)CN(C)C(=O)n1c(=O)n(C)c2nc(-c3ccccc3)ncc21 [Example 37, Ethyl N-methyl-N-[(9-methyl-8-oxo-2-phenyl-8,9-dihydro-7H-purin-7-yl)carbonyl]glycinate]			91	46
CCCn1c(=O)n(C(=O)N(C)C)c2nc(CCc3ccccc3F)ncc21 [Example 646, 2-[2-(2-Fluorophenyl)ethyl]-N,N-dimethyl-8-oxo-7-propyl-7,8-dihydro-9H-purine-9-carboxamide]	117	13		
Cn1c(=O)n(C(=O)N2CCN(c3ccc(F)cc3)CC2)c2cnc(-c3ccccc3)nc21 [Example 123, 7-{[4-(4-Fluorophenyl)piperazin-1-yl]carbonyl}-9-methyl-2-phenyl-7,9-dihydro-8H-purine-8-one]			101	4
CCCn1c(=O)n(C(=O)N2CC(c3ccccc3)C2)c2cnc(COC)nc21 [Example 658, 2-(Methoxymethyl)-7-[(3-phenylazetidin-1-yl)carbonyl]-9-propyl-7,9-dihydro-8H-purine-8-one]	86	15		
CCN(C)C(=O)n1c(=O)n(C)c2nc(Cc3ccc(F)cc3)ncc21 [Example 279, N-Ethyl-2-(4-fluorobenzyl)-N,9-dimethyl-8-oxo-8,9-dihydro-7H-purine-7-carboxamide]			98	3
CCN(C)C(=O)n1c(=O)n(C)c2nc(Cc3ccc(C)cc3)ncc21 [Example 281, N-Ethyl-N,9-dimethyl-2-(4-methylbenzyl)-8-oxo-8,9-dihydro-7H-purine-7-carboxamide]			98	14
CCN(CC)C(=O)n1c(=O)n(C)c2nc(-c3cccc(OC)c3)ncc21 [Example 70]			41	> 100
CCCCc1ncc2c(n1)n(C)c(=O)n2C(=O)N(C)CC [Example 161, 2-Butyl-N-ethyl-N,9-dimethyl-8-oxo-8,9-dihydro-7H-purine-7-carboxamide]			93	19
COCc1ncc2c(n1)n(C1CC1)c(=O)n2C(=O)N1CC(c2ccc(F)cc2)C1 [compound 664]	102	10		
Cc1cccc(OCCCc2ncc3c(n2)n(C(=O)N(C)C)c(=O)n3C)c1 [Example 397]			76	32
COc1cccc(-c2ncc3c(n2)n(C)c(=O)n3C(=O)N(C)Cc2ccc(Cl)cc2)c1 [Example 78, N-(4-Chlorobenzyl)-2-(3-methoxyphenyl)-N,9-dimethyl-8-oxo-8,9-dihydro-7H-purine-7-carboxamide]			108	10

Further lines, results first:

inhibition at 0.1 µM [1] [%]	IC50 [nM]	inhibition at 0.1 µM [2] [%]	IC50 (test substance 0.1 nM to 1 μM) [nM]	SMILES
		105	7	COc1ccc(-c2ncc3c(n2)n(C)c(=O)n3C(=O)N2CCCC2)cc1F [compound 191]
		88	98	Cn1c(=O)n(C(=O)N2CCC2)c2nc(CCCOc3ccccc3)ncc21 [Example 400]
		98	24	Cn1c(=O)n(C(=O)N2CCCC2)c2cnc(-c3cccc([N+](=O)[O-])c3)nc21 [Example 203, 2-(3-nitrophenyl)-9-methyl-7-(pyrrolidin-1-ylcarbonyl)-7,9-dihydro-8H-purine-8-one]
		98	10	CN(C)C(=O)n1c(=O)n(C)c2cnc(CCc3cccc(C4CC4)c3)nc21 [compound 517]
		98	9	CCCOc1ccc(CCc2ncc3c(n2)n(C(=O)N2CCC2)c(=O)n3C)cc1 [compound 564]
		81	25	Cn1c(=O)n(C(=O)N2CCC2)c2nc(CCc3cc(F)cc(F)c3)ncc21 [Example 580, 9-(Azetidin-1-ylcarbonyl)-2-[2-(3,5-difluorophenyl)ethyl]-7-methyl-7,9-dihydro-8H-purine-8-one]
		70	92	Cn1c(=O)n(C(=O)N2CCC2)c2cnc(COc3cccc(Cl)c3)nc21 [compound 407]
		104	10	Cn1c(=O)n(C(=O)N2CCC2)c2nc(-c3ccc(OC(F)(F)F)cc3)ncc21 [compound 351]
		98	9	Cn1c(=O)n(C(=O)N2CCN(c3ccc(C(F)(F)F)cn3)CC2)c2cnc(-c3ccccc3)nc21 [Example 50, 9-Methyl-2-phenyl-7-({4-[5-(trifluoromethyl)-pyridin-2-yl]piperazin-1-yl}carbonyl)-7,9-dihydro-8H-purine-8-one]
		55	100	Cn1c(=O)n(C(=O)N2CCC2)c2cnc(COc3cccc(C(F)(F)F)c3)nc21 [compound 410]
		58	75	COc1ccccc1Cc1ncc2c(n1)n(C(=O)N1CCCC1)c(=O)n2C [compound 291]
		94	10	Cn1c(=O)n(C(=O)N2CCC2)c2nc(-c3cccc(OC(F)(F)F)c3)ncc21 [compound 350]
		100	7	COCCC1CCN(C(=O)n2c(=O)n(C)c3nc(-c4cccc(OC)c4)ncc32)CC1 [Example 119, 7-{[4-(2-Methoxyethyl)piperidin-1-yl]carbonyl}-2-(3-methoxyphenyl)-9-methyl-7,9-dihydro-8H-purine-8-one]
103	9			Cn1c(=O)n(C(=O)N2CCC2)c2nc(CCCC3CCCCC3)ncc21 [Example 619]
		99	7	Cn1c(=O)n(C(=O)N2CCCC2)c2cnc(Cc3ccc(F)cc3)nc21 [Example 256, 2-(4-Fluorobenzyl)-9-methyl-7-(pyrrolidin-1-ylcarbonyl)-7,9-dihydro-8H-purine-8-one]
		63	75	CCOC(=O)CCc1ncc2c(n1)n(C)c(=O)n2C(=O)N1CCCC1 [Example 276]
		75	68	CCOc1ccc(Cc2ncc3c(n2)n(C)c(=O)n3C(=O)N2CCCC2)cc1 [compound 263]
		98	11	Cc1ccc(CCc2ncc3c(n2)n(C(=O)N(C)C)c(=O)n3C)cc1 [Example 494, N,N,7-Trimethyl-2-[2-(4-methylphenyl)ethyl]-8-oxo-7,8-dihydro-9H-purine-9-carboxamide]
		103	8	CCOc1ccc(-c2ncc3c(n2)n(C)c(=O)n3C(=O)N2CCCC2)cn1 [compound 210]
		104	10	CCCc1ccc(CCc2ncc3c(n2)n(C(=O)N(C)C)c(=O)n3C)cc1 [compound 500]
		100	6	Cn1c(=O)n(C(=O)N2CCCC2)c2nc(-c3cccc(OC(F)(F)F)c3)ncc21 [Example 236, 7-Methyl-9-(pyrrolidin-1-ylcarbonyl)-2-[3-(trifluoromethoxy)phenyl]-7,9-dihydro-8H-purine-8-one]
		103	11	Cn1c(=O)n(C(=O)N2CCCC2)c2nc(CCc3cccc(C(F)(F)F)c3)ncc21 [Example 313, 7-Methyl-9-(pyrrolidin-1-ylcarbonyl)-2-{2-[3-(trifluoromethyl)phenyl]ethyl}-7,9-dihydro-8H-purine-8-one]
		97	9	CN(C)C(=O)n1c(=O)n(C)c2cnc(CCc3ccc(OCC(F)(F)F)cc3)nc21 [Example 553, N,N,7-Trimethyl-8-oxo-2-{2-[4-(2,2,2-trifluoroethoxy)phenyl]ethyl}-7,8-dihydro-9H-purine-9-carboxamide]
